Measured values from PMC5739597, “Discovery and evaluation of triple inhibitors of VEGFR-2, TIE-2 and EphB4 as anti-angiogenic and anti-cancer agents” (Oncotarget, 2017).
Values joined by “and” are separate entries in the source; they are usually repeats but may differ in a detail not shown here. Equal values may be shown once.

Assays:
[1] = target: T1, VEGFR-2 (Homo sapiens, UniProt P35968); test: ADP-Glo in vitro RTK inhibition assay, VEGFR-2; format: biochemical; conditions: ATP 50 μM
Procedure: (§1) In order to validate the direct effect of title compounds on VEGFR-2, Tie-2, and EphB4 kinases, we performed in vitro assay using the ADP-Glo Kinase Assay Kit (Promega, Wisconsin, USA).
(§2) The kinase assay was performed in a reaction mixture of final volume of 10 μL. […] The plate was incubated at 30°C for 1 h. After the plate was cooled at room temperature for 5 min, 5 μL of ADP-Glo reagent was added into each well to stop the reaction and consume the remaining […] within 40 min. At the end, 10 μL of kinase detection reagent was added into the well and incubated for 30 min to produce a luminescence signal. […] The assay plate was incubated at 30°C for 4 h. After the plate was cooled at room temperature for 5 min, 5 μL of ADP-Glo reagent was added into each well to stop the reaction and consume the remaining […] within 1 h. At the end, 10 μL of kinase detection reagent was added into each well and incubated for 30 min to produce a luminescence signal. The luminescence was read by VICTOR-X multi-label plate reader.

[2] = target: TIE-2 (Homo sapiens, UniProt Q02763); test: ADP-Glo in vitro RTK inhibition assay, TIE-2; format: biochemical; conditions: ATP 50 μM
Procedure: as §1, §2

[3] = target: FGFR-4 (Homo sapiens, UniProt P22455); test: Kinase-Glo Plus RTK selectivity assay, FGFR-4; format: biochemical; conditions: 10 μM ATP
Procedure: (§3) A 50 μL reaction mixture contains 40 mM Tris, pH 7.4, 10 mM MgCl2, 0.1 mg/ml BSA, 1 mM DTT, 10 μM ATP, kinase and substrate (0.2 mg/mL Poly(Glu, Tyr)/10 μM ATP). The test compounds were diluted in 10% DMSO and 5 μL of the dilution was added to a 50 μL reaction so that the final concentration of DMSO is 1% in all of reactions. The assay was performed using Kinase-Glo Plus luminescence kinase assay kit. It measures kinase activity by quantitating the amount of ATP remaining in solution following a kinase reaction. The luminescent signal from the assay is correlated with the amount of ATP present and is inversely correlated with the amount of kinase activity. The IC50 values were calculated using nonlinear regression with normalized dose−response fit using Prism GraphPad software.

[4] = target: c-Kit (Homo sapiens, UniProt P10721); test: Kinase-Glo Plus RTK selectivity assay, c-Kit; format: biochemical; conditions: 10 μM ATP
Procedure: as §3

[5] = system: human breast cancer cell lines (MCF-7); test: Anti-proliferative MTT assay, MCF-7; format: cell-based; conditions: MCF7, 48 h
Procedure: (§4) These RTKs play critical roles in the proliferation of various cancers. Therefore, RTKs inhibition generally translate well into anti-proliferation activity.
(§5) Exponentially growing cells were harvested and plated in 96-well plates at a concentration of 1×10^4 cells/well per well, and then were incubated at 37°C for 24 h. […] Subsequently, 22 μL fresh MTT (5 mg/mL) was added to each well and incubated at 37°C for 4 h. […] DMSO was added to each well after supernatant was discarded. Absorbance values were determined by a microplate reader (Bio-Rad Instruments) at 490 nm. The IC50 values were calculated according to inhibition ratios.

[6] = system: human pancreatic cancerous cell lines (PANC-1); test: Anti-proliferative MTT assay, PANC-1; format: cell-based; conditions: 48 h
Procedure: as §4, §5

[7] = system: human epidermoid carcinoma cell line (A431); test: Anti-proliferative MTT assay, A431; format: cell-based; conditions: A-431, 48 h
Procedure: as §4, §5

[8] = system: human lung cancer cell (A549); test: Anti-proliferative MTT assay, A549; format: cell-based; conditions: 48 h
Procedure: as §4, §5

[9] = system: human colon carcinoma cell line (LOVO); test: Anti-proliferative MTT assay, LOVO; format: cell-based; conditions: 48 h
Procedure: as §4, §5

[10] = system: human cervical cancer cell line (HeLa); test: Anti-proliferative MTT assay, HeLa; format: cell-based; conditions: 48 h
Procedure: as §4, §5

[11] = system: human embryonic kidney 293 (HEK293); test: Cytotoxicity on normal cells, HEK293; format: cell-based; conditions: MTT, 48 h, read-out: Anti-proliferative activity IC50, HEK293 (normal cells)
Procedure: In order to determine the anti-angiogenic effect of these multi-target inhibitors, we evaluated their effect on HECs (EA.hy926) viability using cell counting kit-8 (CCK-8) method.
as §4, §5

[12] = target: T1, VEGFR-2; test: VEGFR-2/cell membrane chromatography (CMC) affinity evaluation; format: binding
Procedure: In previous studies, artificial cultures highly expressing VEGFR-2 on HEK293 cell lines were constructed. […] Chromatographic conditions: 10 mm×2.0 mm; flow rate0.6 mL/min; column temperature 37°C; mobile phase 5 mM PBS, pH 7.4; detection wavelength 270 nm.
The VEGFR-2 cell membrane stationary phase was prepared as previous reported. Aqueous ammonium acetate buffer solution (pH 7.4, 5 mM) was pumped at a flow rate of 0.2 mL/min as the mobile phase after VEGFR-2/CMC column was loaded onto the chromatography system at the temperature of 37°C. […] The mobile phase was 5.0 mM phosphate burred saline with a 0.6 mL/min flow rate at a column temperature of 37°C. The detected wavelength was 270 nm. The test compound was injected into the VEGFR-2/CMC column and their retention characteristics were identified to evaluate their affinity with VEGFR-2.

[13] = system: VEGFR-2; test: Western blot of VEGFR-2 level and phosphorylation in EA.hy926 cells; format: cell-based, human
Procedure: The expression and phosphorylation of VEGFR-2 in EA.hy926 cells were assessed using western blot analysis with various antibodies. […] Cell lysates containing equal amounts of protein were separated by SDS polyacrylamide gel electrophoresis and transferred to polyvinylidene difluoride membranes. After being blocked in 5% nonfat milk in Tris-buffered saline with 0.1% Tween 20, pH 7.6, the membranes were incubated with the appropriate primary antibodies at 4°C overnight and then exposed to secondary antibodies for 2 h at room temperature. Immunoreactive proteins were visualized using the enhanced chemiluminescence system from Pierce Chemical.

T1 sequence (P35968 20-1356): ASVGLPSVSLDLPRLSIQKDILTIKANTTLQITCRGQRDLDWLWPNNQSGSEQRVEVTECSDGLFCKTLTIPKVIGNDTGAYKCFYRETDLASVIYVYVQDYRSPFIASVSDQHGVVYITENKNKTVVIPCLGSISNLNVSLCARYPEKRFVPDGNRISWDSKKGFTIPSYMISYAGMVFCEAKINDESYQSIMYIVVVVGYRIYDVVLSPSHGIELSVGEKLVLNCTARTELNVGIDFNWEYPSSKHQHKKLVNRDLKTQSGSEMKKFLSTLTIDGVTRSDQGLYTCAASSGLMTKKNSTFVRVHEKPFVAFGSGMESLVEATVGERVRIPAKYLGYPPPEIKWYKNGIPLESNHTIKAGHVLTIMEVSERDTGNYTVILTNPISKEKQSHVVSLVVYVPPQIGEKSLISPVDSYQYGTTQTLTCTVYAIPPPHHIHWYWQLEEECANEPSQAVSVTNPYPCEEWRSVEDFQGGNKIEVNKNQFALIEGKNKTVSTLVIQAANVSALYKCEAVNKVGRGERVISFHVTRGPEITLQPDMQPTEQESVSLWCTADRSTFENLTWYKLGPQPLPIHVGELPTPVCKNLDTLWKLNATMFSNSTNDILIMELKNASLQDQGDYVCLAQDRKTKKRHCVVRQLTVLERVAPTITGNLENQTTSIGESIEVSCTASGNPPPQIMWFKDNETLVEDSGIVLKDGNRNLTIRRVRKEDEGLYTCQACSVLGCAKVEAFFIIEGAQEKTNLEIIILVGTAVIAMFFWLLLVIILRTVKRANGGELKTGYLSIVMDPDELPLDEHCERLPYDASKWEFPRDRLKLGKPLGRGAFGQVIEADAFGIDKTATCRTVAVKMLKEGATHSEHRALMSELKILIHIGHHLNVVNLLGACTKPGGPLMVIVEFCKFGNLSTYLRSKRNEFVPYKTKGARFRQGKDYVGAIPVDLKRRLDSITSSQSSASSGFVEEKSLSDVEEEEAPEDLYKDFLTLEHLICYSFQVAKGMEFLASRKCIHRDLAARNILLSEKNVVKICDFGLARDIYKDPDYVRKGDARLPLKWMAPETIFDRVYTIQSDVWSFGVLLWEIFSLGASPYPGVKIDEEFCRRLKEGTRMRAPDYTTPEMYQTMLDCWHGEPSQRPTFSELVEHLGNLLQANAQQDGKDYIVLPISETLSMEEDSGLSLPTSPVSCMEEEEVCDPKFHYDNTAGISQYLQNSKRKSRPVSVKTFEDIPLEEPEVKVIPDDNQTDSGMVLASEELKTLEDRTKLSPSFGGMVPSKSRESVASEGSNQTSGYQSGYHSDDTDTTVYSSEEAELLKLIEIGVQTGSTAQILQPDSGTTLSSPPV
Chain of TIE-2 (Q02763 23-1124): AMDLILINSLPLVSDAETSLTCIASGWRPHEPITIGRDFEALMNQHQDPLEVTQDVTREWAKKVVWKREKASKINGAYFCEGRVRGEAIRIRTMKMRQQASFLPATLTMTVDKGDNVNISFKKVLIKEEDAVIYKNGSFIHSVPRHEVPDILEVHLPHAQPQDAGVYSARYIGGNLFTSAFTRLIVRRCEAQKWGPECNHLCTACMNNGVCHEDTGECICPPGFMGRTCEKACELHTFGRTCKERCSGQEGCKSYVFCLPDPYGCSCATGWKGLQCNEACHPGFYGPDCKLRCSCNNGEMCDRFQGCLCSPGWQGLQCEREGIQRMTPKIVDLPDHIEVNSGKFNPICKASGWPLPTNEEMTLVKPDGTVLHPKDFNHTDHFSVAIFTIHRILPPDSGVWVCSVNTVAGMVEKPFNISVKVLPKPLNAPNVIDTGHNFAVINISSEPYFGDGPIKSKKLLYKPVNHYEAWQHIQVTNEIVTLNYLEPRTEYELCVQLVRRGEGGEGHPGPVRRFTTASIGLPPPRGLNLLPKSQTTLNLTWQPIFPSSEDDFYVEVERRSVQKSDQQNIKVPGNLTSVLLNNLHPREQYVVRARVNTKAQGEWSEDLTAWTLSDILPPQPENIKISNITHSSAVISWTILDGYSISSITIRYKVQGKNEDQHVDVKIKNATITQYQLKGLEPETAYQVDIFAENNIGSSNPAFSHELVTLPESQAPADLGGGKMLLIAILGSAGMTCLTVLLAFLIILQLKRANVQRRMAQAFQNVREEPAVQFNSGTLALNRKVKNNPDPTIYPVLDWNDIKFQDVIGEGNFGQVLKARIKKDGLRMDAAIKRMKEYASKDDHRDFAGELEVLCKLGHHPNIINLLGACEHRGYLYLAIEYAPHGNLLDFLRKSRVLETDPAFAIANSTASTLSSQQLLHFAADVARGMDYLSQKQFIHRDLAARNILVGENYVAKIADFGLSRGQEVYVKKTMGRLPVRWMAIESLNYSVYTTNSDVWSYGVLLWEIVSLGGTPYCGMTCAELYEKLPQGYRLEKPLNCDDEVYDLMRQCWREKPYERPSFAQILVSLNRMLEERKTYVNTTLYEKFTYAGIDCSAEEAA
Chain of c-Kit (P10721 26-976): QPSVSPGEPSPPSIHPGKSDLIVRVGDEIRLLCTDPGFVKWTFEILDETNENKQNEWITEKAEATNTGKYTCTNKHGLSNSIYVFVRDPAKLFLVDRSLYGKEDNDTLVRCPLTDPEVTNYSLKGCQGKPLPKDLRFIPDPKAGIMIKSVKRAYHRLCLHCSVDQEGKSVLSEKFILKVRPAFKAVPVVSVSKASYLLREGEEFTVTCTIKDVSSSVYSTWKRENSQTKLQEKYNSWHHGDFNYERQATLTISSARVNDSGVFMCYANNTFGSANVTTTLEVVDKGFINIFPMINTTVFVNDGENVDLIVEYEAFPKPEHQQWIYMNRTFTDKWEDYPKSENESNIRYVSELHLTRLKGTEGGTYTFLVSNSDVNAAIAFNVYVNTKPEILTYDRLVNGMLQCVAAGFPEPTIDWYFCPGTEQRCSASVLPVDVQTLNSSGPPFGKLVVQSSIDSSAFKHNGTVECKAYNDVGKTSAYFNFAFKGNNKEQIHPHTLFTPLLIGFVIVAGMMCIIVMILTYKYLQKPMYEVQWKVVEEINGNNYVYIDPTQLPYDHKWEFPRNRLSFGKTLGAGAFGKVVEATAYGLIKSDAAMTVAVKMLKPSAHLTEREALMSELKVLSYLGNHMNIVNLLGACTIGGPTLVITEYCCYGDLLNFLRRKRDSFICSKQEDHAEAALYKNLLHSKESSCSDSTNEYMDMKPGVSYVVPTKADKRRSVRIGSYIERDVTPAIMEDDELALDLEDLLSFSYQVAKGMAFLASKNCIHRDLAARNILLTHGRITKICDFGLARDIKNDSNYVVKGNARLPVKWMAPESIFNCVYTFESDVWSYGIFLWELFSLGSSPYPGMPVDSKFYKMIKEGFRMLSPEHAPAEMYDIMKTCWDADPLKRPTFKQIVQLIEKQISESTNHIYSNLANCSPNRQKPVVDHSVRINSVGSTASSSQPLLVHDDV
Chain of FGFR-4 (P22455 22-802, species assumed): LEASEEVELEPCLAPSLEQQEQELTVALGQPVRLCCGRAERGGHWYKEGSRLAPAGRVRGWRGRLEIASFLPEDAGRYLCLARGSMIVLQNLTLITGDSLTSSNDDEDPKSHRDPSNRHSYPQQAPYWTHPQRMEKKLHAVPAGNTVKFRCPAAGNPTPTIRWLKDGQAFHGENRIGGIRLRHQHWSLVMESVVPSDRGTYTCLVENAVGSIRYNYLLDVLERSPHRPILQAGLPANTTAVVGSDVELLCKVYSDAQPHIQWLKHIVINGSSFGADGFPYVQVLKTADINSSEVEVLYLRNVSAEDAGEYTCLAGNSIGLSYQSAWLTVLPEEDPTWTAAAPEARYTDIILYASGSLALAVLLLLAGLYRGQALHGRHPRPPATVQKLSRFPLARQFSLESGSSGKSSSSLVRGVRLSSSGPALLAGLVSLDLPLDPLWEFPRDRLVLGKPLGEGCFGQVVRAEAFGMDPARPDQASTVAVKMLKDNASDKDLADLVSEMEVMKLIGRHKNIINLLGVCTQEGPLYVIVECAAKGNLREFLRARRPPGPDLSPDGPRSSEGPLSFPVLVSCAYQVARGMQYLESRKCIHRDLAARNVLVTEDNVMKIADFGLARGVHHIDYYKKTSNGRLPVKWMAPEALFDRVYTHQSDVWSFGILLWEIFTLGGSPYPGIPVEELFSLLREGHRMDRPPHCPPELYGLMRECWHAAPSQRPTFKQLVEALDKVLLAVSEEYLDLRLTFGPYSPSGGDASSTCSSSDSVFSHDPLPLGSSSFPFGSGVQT

O=C(Nc1ccc(-c2ccc3c(=O)[nH]cnc3c2)cc1)Nc1ccc(F)c(F)c1 [QDAU5, 1-(3,4-difluorophenyl)-3-(4-(4-oxo-3,4-dihydroquinazolin-7-yl)phenyl)urea]
IC50 [1]: 0.00077 µM | IC50 [2]: 0.00887 µM | IC50 [3]: > 0.5 µM | IC50 [4]: 0.142 µM | IC50 [5]: 2.12 µM | IC50 [6]: 24.9 µM | IC50 [7]: 16.9 µM | IC50 [8]: 8.37 µM | IC50 [9]: 4.99 µM | IC50 [10]: 5.56 µM | IC50 [11]: > 100 µM | Direct competitive assay on VEGFR-2/CMC (change in K' of multi-target RTK inhibitors) ([12]; QDAU5 at increasing concentrations in the mobile phase): interacted with the same site of VEGFR-2 | Retention time on VEGFR-2/cell membrane stationary phase column ([12]; flow rate 0.6 mL/min, 37°C, 5 mM PBS pH 7.4, 270 nm): 38 min and 38.0 min | VEGF-induced tyrosine phosphorylation of VEGFR-2 ([13]; EA.hy926, 48 h, then 50 ng/mL VEGF for 10 min): dose-dependently decreased | level of VEGFR-2 ([13]; VEGF-stimulated EA.hy926, 48 h): moderately reduced
